The subject of one test is SK-BR-3. Kind of test: CellTiter-Glo cell proliferation inhibition, SK-BR-3. The test is classed as cell-based. The settings on record: Homo sapiens; SK-BR-3 (breast cancer cell line), 72 hours; read-out: Example IC50 (µM) SK-BR-3. The text has this:
(§1) This experiment used the CellTiter-Glo® Luminescent Cell Viability Assay kit from Promega to evaluate the inhibitory activity of the disclosed compounds on the proliferation of the following cell lines: 4T1 (mouse breast cancer cell line), A20 (mouse B-cell lymphoma cell line), A2780 (human ovarian cancer cell line), AsPC-1 (pancreatic cancer cell line), B16F10 (mouse melanoma cell line), BT549 (human breast cancer cell line), CT26 (mouse colon cancer cell line), EMT6 (mouse breast cancer cell line), HCT116 (colorectal cancer cell line), Jurket (acute leukemia cell line), KP-4 (pancreatic cancer cell line), LL/2 (mouse lung cancer cell line), MCF7 (breast cancer cell line), […] NCI-H358 (lung cancer cell line), NCI-H727 (gastric cancer cell line), NCI-1944 (lung cancer cell line), Pan 04.03 (pancreatic cancer cell line), SK-BR-3 (breast cancer cell line), THP-1 (leukemia cell line), TOV21G (ovarian cancer cell line), U87MG (glioblastoma cell line), and UM-UC-a (bladder cancer cell line).
(§2) All cell lines were purchased from Nanjing Kebai Biotechnology Co., Ltd. The following materials were also used in the experiment: RPMI-1640 media (HyClone, catalog number #SH30022.01), McCoy's 5A media (Thermo Fisher, catalog number #16600-082), MCDB 105 media (Sigma, catalog number #117-500), Medium 199 (Thermo Fisher, catalog number #11150-059), MEM media (Thermo Fisher, catalog number #11095-080), DMEM media (HyClone, catalog number #SH30027.01), fetal bovine serum (FBS) (ExCell, catalog number # M4530), Sodium Pyruvate (100Mm) (Thermo Fisher, catalog number #11360-070), and MEM NEAA (100X) (Thermo Fisher). […]
(§3) Cells were cultured according to the instructions provided by the cell supplier (Nanjing Kebai Biotechnology Co., Ltd.). […] Suspension or adherent cells were collected, and cell viability was determined using the trypan blue exclusion method, ensuring that cell viability was above 90%. […]

In another test the test system is NCI-H358. Kind of test: CellTiter-Glo cell proliferation inhibition, NCI-H358. The test is classed as cell-based. The conditions noted are these: Homo sapiens; NCI-H358 (lung cancer cell line), 2D, 72 hours; read-out: Example IC50 (µM) NCI-H358(2D).
Text: as §1, §2, §3

On to `CC1(n2c(-c3ccc(NC(=O)C(=O)Nc4ccc(N5CCC6(CCOC6)CC5)cc4)cc3)cc3cc(F)c(-c4nnn[nH]4)cc32)CCC1` [Example 68], for which the IC50 in the test with SK-BR-3 worked out at 0.057 µM; with NCI-H358, 0.072 µM.

For `O=C(Nc1ccc(-c2csc(CO)c2)cc1)C(=O)Nc1ccc(-c2cc3cc(F)c(-c4nnn[nH]4)cc3n2C2CCC2)cc1` [Example 1], the IC50 with SK-BR-3 was 0.14 µM; in the test with NCI-H358 it was 0.074 µM.

For the compound `O=C(Nc1ccc(-c2cc3cc(F)c(-c4nnn[nH]4)cc3n2C2CCC2)cc1)C(=O)Nc1ccc(N2CCC3(CCC(O)C3)CC2)cc1` (stereo not drawn) [Example 100], the IC50 was 0.044 µM in the test with SK-BR-3 and 0.063 µM with NCI-H358.

(Values after patent publication EP4741383A1, “COMPOUND AND USE THEREOF AS ANTI-CANCER DRUG” (Tyligand Bioscience (Shanghai) Limited, priority 2023, dated 2025).)
